The assay has as its system anaesthetised, open-chest beagle dogs. As to the kind of experiment: in vivo inotropic and vasodilatory activity, bolus intravenous injection. The settings on record: for ED30 / ED50: Canis lupus familiaris, bolus intravenous injection; for ED30: read-out: ED30D.B.P. (effective intravenous dose to produce a 30% decrease in diastolic blood pressure); for ED50: read-out: ED50L.V. dP/dt (effective intravenous dose of compound to produce a 50% increase in L.V. dP/dt); for Selectivity ED50L.V. dP/dt / ED30D.B.P. / Tr (duration of inotropic response): intravenous; for Tr (duration of inotropic response): time in which a 50% increase in L.V. dp/dt would return to pre-dose levels. On the procedure: Determination of in vivo Inotropic and Vasodilatory Activity Compounds according to the present invention were tested in vivo in comparison with the compound 2-(2-methoxy-4-methylsulphinylphenyl)imidazo[1,2-a]pyrazine (hereinafter referred to as compound 'X' disclosed in UK patent specification No. 2 132 203 A. The compounds were tested in anaesthetised, open-chest beagle dogs by bolus intravenous injection to produce a dose-related positive inotropic stimulation (as measured by the increase in the maximum rate of change of the left ventricular pressure -,L.V. dp/dt) over the dose range of 0.003 - 3.0 mg/kg. This was accompanied by a dose-related increase in aortic blood flow, and a fall in systemic blood pressure (see Table below). In these preparations, the duration of inotropic response was estimated by measuring the time in which a 50% increase in L.V. dp/dt would return to pre-dose levels. The duration is shown in the table below and for some of the compounds is given as a range. [table]

The results in this text go back to EP0166609A2, “Aryl derivatives of heterobicyclic compounds” (THE WELLCOME FOUNDATION LIMITED, priority 1984, dated 1986).

Where only a bound is given, the exact number is not on record here.

Regarding `COc1cc([S+](C)[O-])ccc1-c1cn2ccncc2n1` (stereo not drawn) [X, 2-(2-methoxy-4-methylsulphinylphenyl)imidazo[1,2-a]pyrazine, reference compound], the ED30 was 0.028 mg/kg, the ED50 was 0.75 mg/kg, the “Selectivity ED50L.V. dP/dt / ED30D.B.P.” value is 26.8 and the “Tr (duration of inotropic response)” value was found to be 5 min.
Taken in the same sequence, the figures for `COc1cc(C(C)=O)ccc1-c1cn2ccncc2n1` [Example 7, 2-(2-methoxy-4-acetylphenyl)imidazo[1,2-a]pyrazine] were 0.1 mg/kg, 0.03 mg/kg, 0.30 and 10 min.
Take `COc1cc(C(N)=O)ccc1-c1cn2ccnc(OC)c2n1.Cl` [Example 5, 2-(2-methoxy-4-carbamoylphenyl)-8-methoxy-imidazo[1,2-a]pyrazine hydrochloride]: the ED30 was determined as 0.15 mg/kg, the ED50 worked out at 0.06 mg/kg, the “Selectivity ED50L.V. dP/dt / ED30D.B.P.” value turned out to be 0.39 and the “Tr (duration of inotropic response)” value is 30 to 45 min.
Consider `COc1cc(OS(C)(=O)=O)ccc1-c1cn2ccnc(OC)c2n1` [Example 4, 8-methoxy-2-(2-methoxy-4-methylsulphonyloxyphenyl)imidazo[1,2-a]pyrazine], for which the ED30 worked out at 0.06 mg/kg, the ED50 was 0.07 mg/kg, the “Selectivity ED50L.V. dP/dt / ED30D.B.P.” value is 1.22 and the “Tr (duration of inotropic response)” value is 45 to 60 min.
Taken in the same sequence, the figures for `COc1cc([S+](C)[O-])ccc1-c1cn2ccnc(OC)c2n1` (stereo not drawn) [Example 3, 8-methoxy-2-(2-methoxy-4-methylsulphinylphenyl)imidazo[1,2-a]pyrazine] were 1.17 mg/kg, 0.91 mg/kg, 0.08 and 60 min.
Consider `COc1cc(C(N)=O)ccc1-c1cn2ccncc2n1` [Example 1, 2-(2-Methoxy-4-carbamoylphenyl)-imidazo[1,2-a]pyrazine], for which the ED30 worked out at 0.05 mg/kg, the ED50 came to 0.02 mg/kg, the “Selectivity ED50L.V. dP/dt / ED30D.B.P.” value was determined as 0.4 and the “Tr (duration of inotropic response)” value is over 30 min.
